Results: patent US20250059198A1, “BRM DEGRADING COMPOUNDS AND ASSOCIATED METHODS OF USE” (Arvinas Operations, Inc., priority 2021, published 2025)

Molecular target: T1, BRM (Homo sapiens, UniProt P51531)
T1 construct: Western Blot Screen of BRM Degradation in SW1573 Cells; endogenous in cells; host or cells: SW1573 cells
Assay: BRM degradation (Dmax and DC50) in SW1573 cells, Western blot screen / In-Cell Western screen
Assay type: cell-based
Details: overnight (18-20 hours) treatment; for Dmax: read-out: Dmax (%)** (% degraded)
Protocol: (§1) To assess BRM degradation (Dmax and DC50) cells were seeded at 8000/well in 96-well black/clear-bottom plates in 180 μL DMEM growth media (containing 1% pen-strep, 1% HEPES and 10% FBS) per well. Plates were incubated overnight to allow adhesion. The next morning cells were treated by adding 20 μL of 10× target compound concentration (1% DMSO) to appropriate wells and returned to incubator for overnight (18-20 hours). The final DMSO concentration was 0.1%.
For lysing, adherent cells were washed once with 100 μL of DPBS. Cells were lysed in 40 μL of 1×RIPA+HALT protease inhibitor on ice for 10 minutes and frozen until use at −80° C. Thawed lysates were cleaned by filtration in 1.2 µm filter plates, or alternatively, were spun clean at 2300 g at 4° C. for 30 minutes.
For blotting, for each Western sample 30 μL of lysate was added to 10 μL of 4× LDS sample buffer, then denatured at 95° C. for 5 minutes in the thermal cycler and placed on ice. Samples were loaded on 4-15% Tris/Glycine gels and run for 25 minutes at 250 constant volts in 1× Tris/Glycine buffer with 4 μL of ladder and 12 μL of each sample loaded for each blot. Protein was transferred from gels to NC with BioRad Turbo dry-transfer unit with the Turbo/midi default program. All blots were rinsed with ddH2O and blocked for 1 hour at room temperature in 5% BSA in TBST (0.1%) on rocker. Blots were exposed to primary antibody in 5% BSA in TBST (0.1%) overnight at 4° C. on rocker (1:1000 for BRM (Cell Signaling Tech. cat #11966) and 1:2000 for alpha-tubulin (Cell Signaling Tech. cat #3873), a control protein. Blot was washed with TBST (0.1%) three times for 5 minutes on rocker at room temperature. Secondary antibody was added, and blots were incubated on a room temperature rocker for 1 hour with 1:18,000 anti-rabbit-HRP and/or anti-mouse-HRP in 5% BSA in TBST (0.1%). Blots were washed three times in TBST (0.1%) for 5 minutes at room temperature on the rocker. Signal was developed with Femto Maximum Sensitivity substrate for 4 minutes and blots read on ChemiDoc™.
as §1, with “DC50),” for “DC50)”, “10×” for “10× target”, “compound” for “compound concentration”
For processing, the plates were removed from incubator, the media was removed, and immediately 200 μL of cold (4° C.) DPBS was added to all wells. DPBS was then removed, and 50 μL of 4% paraformaldehyde (PFA) in DPBS (4° C.) was added to all wells, and the plates were incubated at room temperature for 20 minutes. PFA was then removed, and 200 μL of TBS-T containing 0.5% Triton X-100 was added to all wells, and the plates were incubated at room temperature for 30 minutes. TBS-T containing 0.5% Triton X-100 was then removed, and 50 μL of Li-Cor blocking solution was added, and the plates were incubated at room temperature for a minimum of one hour. The blocking solution was removed, and 50 μL of Li-Cor blocking solution containing primary antibody cocktail was added (1:1000 for BRM (Cell Signaling Tech. cat #11966) and 1:2000 for alpha-tubulin (Sigma cat #T6074), a control protein. Plates were then placed in cold room until the next day.
The next day plates were washed three times with TBS-T, 200 μL per well. Fifty […] of secondary antibody cocktail in LI-COR blocking solution (anti-rabbit_800 nm and anti-mouse_680 nm) was added to all wells (diluted 1:5000). The plates were incubated at room temperature for at least one hour while protected from light. The plates were washed twice with TBS-T, 200 μL per well.
To read each plate TBS-T was removed, and each plate was inverted tapped on a paper towel. […]

T1 sequence (P51531 whole entry): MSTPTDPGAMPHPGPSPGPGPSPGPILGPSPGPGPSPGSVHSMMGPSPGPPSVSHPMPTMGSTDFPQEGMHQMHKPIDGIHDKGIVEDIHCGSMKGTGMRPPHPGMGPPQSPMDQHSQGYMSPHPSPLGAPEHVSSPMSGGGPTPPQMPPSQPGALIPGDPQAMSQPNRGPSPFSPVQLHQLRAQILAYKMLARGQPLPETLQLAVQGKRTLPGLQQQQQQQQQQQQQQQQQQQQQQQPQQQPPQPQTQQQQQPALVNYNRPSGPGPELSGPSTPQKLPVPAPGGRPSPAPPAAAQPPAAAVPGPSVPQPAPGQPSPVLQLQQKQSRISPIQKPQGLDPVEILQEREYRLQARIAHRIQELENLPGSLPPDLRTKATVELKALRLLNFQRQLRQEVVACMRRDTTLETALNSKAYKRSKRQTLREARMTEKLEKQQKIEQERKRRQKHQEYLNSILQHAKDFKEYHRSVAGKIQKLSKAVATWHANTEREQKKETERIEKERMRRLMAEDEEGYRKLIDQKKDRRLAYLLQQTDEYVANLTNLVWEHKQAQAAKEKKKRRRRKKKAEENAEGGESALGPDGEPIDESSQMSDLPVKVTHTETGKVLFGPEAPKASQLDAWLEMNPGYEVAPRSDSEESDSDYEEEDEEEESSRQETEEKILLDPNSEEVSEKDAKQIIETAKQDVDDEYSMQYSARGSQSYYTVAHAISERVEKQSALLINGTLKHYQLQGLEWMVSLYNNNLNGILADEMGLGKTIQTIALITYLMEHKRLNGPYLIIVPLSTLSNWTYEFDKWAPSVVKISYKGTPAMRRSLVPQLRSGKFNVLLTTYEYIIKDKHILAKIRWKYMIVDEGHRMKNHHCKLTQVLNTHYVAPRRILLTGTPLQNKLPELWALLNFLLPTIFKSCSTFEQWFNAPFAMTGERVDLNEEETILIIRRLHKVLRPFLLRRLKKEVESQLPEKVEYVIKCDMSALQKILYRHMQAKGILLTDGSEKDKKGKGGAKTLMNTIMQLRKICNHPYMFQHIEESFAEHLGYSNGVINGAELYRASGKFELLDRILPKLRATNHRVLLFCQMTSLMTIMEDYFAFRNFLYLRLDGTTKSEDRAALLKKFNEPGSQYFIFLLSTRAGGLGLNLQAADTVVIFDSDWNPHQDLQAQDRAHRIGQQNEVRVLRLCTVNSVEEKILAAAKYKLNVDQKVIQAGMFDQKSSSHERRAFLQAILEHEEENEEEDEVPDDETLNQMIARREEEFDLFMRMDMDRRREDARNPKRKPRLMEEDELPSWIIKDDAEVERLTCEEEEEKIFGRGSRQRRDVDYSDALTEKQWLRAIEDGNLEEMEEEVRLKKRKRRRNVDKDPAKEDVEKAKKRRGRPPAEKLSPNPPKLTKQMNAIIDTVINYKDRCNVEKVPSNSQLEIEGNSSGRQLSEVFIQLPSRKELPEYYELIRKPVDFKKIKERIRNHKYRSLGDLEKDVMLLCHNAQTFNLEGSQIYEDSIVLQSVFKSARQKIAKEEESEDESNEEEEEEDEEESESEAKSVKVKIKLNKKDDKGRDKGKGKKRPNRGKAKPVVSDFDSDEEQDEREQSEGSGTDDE

SMILES | DC50 [nM] | Dmax [%]
CC(C)[C@@H](C(=O)N1C[C@H](O)C[C@H]1C(=O)N[C@@H](C)c1ccc(Cl)cc1)c1cc(N2CCC(CN3CCC(O[C@H]4C[C@H](Oc5cc(N6C7CCC6CN(c6cc(-c8ccccc8O)nnc6N)C7)ccn5)C4)CC3)CC2)no1 (relative stereo) [Compound 48, (2S,4R)-N-[(1S)-1-(4-chlorophenyl)ethyl]-4-hydroxy-1-[(2R*)-3-methyl-2-{3-[4-({4-[(1rs,3rs)-3-[(4-{3-[3-amino-6-(2-hydroxyphenyl)pyridazin-4-yl]-3,8-diazabicyclo[3.2.1]octan-8-yl}pyridin-2-yl)oxy]cyclobutoxy]piperidin-1-yl}methyl)piperidin-1-yl]-1,2-oxazol-5-yl}butanoyl]pyrrolidine-2-carboxamide] | 10 to 30 | > 75
Cc1ncsc1-c1ccc([C@H](C)NC(=O)[C@@H]2C[C@@H](O)CN2C(=O)[C@@H](c2cc(N3CCC(CN4CCC(O[C@H]5C[C@@H](N6CCC([C@@H](C)n7cc(-c8cc(-c9ccccc9O)nnc8N)cn7)CC6)C5)CC4)CC3)no2)C(C)C)cc1 (single isomer, unassigned) [Compound 6] | < 2.5 | > 75
Cc1ncsc1-c1ccc([C@H](C)NC(=O)[C@@H]2C[C@@H](O)CN2C(=O)[C@@H](c2cc(N3CCC(CN4CCC(O[C@H]5C[C@H](N6CCC([C@@H](C)n7cc(-c8cc(-c9ccccc9O)nnc8N)cn7)CC6)C5)CC4)CC3)no2)C(C)C)cc1 (single isomer, unassigned) [Compound 7] | < 2.5 | > 75
Cc1ncsc1-c1ccc([C@H](C)NC(=O)C2C[C@@H](O)CN2C(=O)[C@@H](c2cc(N3CCC(CN4CC[C@@H](Oc5cc(N6C7CCC6CN(c6cc(-c8ccccc8O)nnc6N)C7)ccn5)[C@@H](F)C4)CC3)no2)C(C)C)cc1 (stereo in doubt) [Compound 49, (2S,4R)-1-[(2R)-2-[3-(4-{[(3S,4R)-4-[(4-{3-[3-amino-6-(2-hydroxyphenyl)pyridazin-4-yl]-3,8-diazabicyclo[3.2.1]octan-8-yl}pyridin-2-yl)oxy]-3-fluoropiperidin-1-yl]methyl}piperidin-1-yl)-1,2-oxazol-5-yl]-3-methylbutanoyl]-4-hydroxy-N-[(1S)-1-[4-(4-methyl-1,3-thiazol-5-yl)phenyl]ethyl]pyrrolidine-2-carboxamide] | < 2.5 | > 75
Cc1ncsc1-c1ccc([C@H](C)NC(=O)C2C[C@@H](O)CN2C(=O)[C@@H](c2cc(N3CCC(CN4CC[C@H](Oc5cc(N6C7CCC6CN(c6cc(-c8ccccc8O)nnc6N)C7)ccn5)[C@H](F)C4)CC3)no2)C(C)C)cc1 (stereo in doubt) [Compound 50, (2S,4R)-1-[(2R)-2-[3-(4-{[(3R,4S)-4-[(4-{3-[3-amino-6-(2-hydroxyphenyl)pyridazin-4-yl]-3,8-diazabicyclo[3.2.1]octan-8-yl}pyridin-2-yl)oxy]-3-fluoropiperidin-1-yl]methyl}piperidin-1-yl)-1,2-oxazol-5-yl]-3-methylbutanoyl]-4-hydroxy-N-[(1S)-1-[4-(4-methyl-1,3-thiazol-5-yl)phenyl]ethyl]pyrrolidine-2-carboxamide] | < 2.5 | > 75
Cc1ncsc1-c1ccc([C@H](C)NC(=O)C2C[C@@H](O)CN2C(=O)[C@@H](c2cc(N3CCC(CN4CC[C@@H](Oc5cc(N6C7CCC6CN(c6cc(-c8ccccc8O)nnc6N)C7)ccn5)C(F)(F)C4)CC3)no2)C(C)C)cc1 (stereo in doubt) [Compound 53, (2S,4R)-1-[(2R)-2-[3-(4-{[(4R)-4-[(4-{3-[3-amino-6-(2-hydroxyphenyl)pyridazin-4-yl]-3,8-diazabicyclo[3.2.1]octan-8-yl}pyridin-2-yl)oxy]-3,3-difluoropiperidin-1-yl]methyl}piperidin-1-yl)-1,2-oxazol-5-yl]-3-methylbutanoyl]-4-hydroxy-N-[(1S)-1-[4-(4-methyl-1,3-thiazol-5-yl)phenyl]ethyl]pyrrolidine-2-carboxamide] | 2.5 to 10 | > 75
Cc1ncsc1-c1ccc([C@H](C)NC(=O)C2C[C@@H](O)CN2C(=O)[C@@H](c2cc(N3CCC(CN4CC[C@H](Oc5cc(N6C7CCC6CN(c6cc(-c8ccccc8O)nnc6N)C7)ccn5)C(F)(F)C4)CC3)no2)C(C)C)cc1 (stereo in doubt) [Compound 54, (2S,4R)-1-[(2R)-2-[3-(4-{[(4S)-4-[(4-{3-[3-amino-6-(2-hydroxyphenyl)pyridazin-4-yl]-3,8-diazabicyclo[3.2.1]octan-8-yl}pyridin-2-yl)oxy]-3,3-difluoropiperidin-1-yl]methyl}piperidin-1-yl)-1,2-oxazol-5-yl]-3-methylbutanoyl]-4-hydroxy-N-[(1S)-1-[4-(4-methyl-1,3-thiazol-5-yl)phenyl]ethyl]pyrrolidine-2-carboxamide] | 2.5 to 10 | > 75
CC(C)[C@H](C(=O)N1C[C@H](O)C[C@H]1C(=O)N[C@@H](C)c1ccc(C#N)cc1)c1cc(O[C@H]2C[C@H](CN3CCC(O[C@H]4C[C@H](Oc5cc(N6C7CCC6CN(c6cc(-c8ccccc8O)nnc6N)C7)ccn5)C4)CC3)C2)no1 [Compound 1, (2S,4R)-N-[(1S)-1-(4-cyanophenyl)ethyl]-4-hydroxy-1-[(2S)-3-methyl-2-{3-[(1r,3r)-3-({4-[(1r,3r)-3-[(4-{3-[3-amino-6-(2-hydroxyphenyl)pyridazin-4-yl]-3,8-diazabicyclo[3.2.1]octan-8-yl}pyridin-2-yl)oxy]cyclobutoxy]piperidin-1-yl}methyl)cyclobutoxy]-1,2-oxazol-5-yl}butanoyl]pyrrolidine-2-carboxamide] | ≥ 30 | 
CC(C)[C@H](C(=O)N1C[C@H](O)C[C@H]1C(=O)N[C@@H](C)c1ccc(-c2ccnn2C)cc1)c1cc(N2CCC(CN3CCC(O[C@H]4C[C@H](Oc5cc(N6CCN(c7cc(-c8ccccc8O)nnc7N)CC6)ccn5)C4)CC3)CC2)no1 [Compound 2, (2S,4R)-4-hydroxy-N-[(1S)-1-[4-(1-methyl-1H-pyrazol-5-yl)phenyl]ethyl]-1-[(2S)-3-methyl-2-{3-[4-({4-[(1r,3r)-3-[(4-{4-[3-amino-6-(2-hydroxyphenyl)pyridazin-4-yl]piperazin-1-yl}pyridin-2-yl)oxy]cyclobutoxy]piperidin-1-yl}methyl)piperidin-1-yl]-1,2-oxazol-5-yl}butanoyl]pyrrolidine-2-carboxamide] | ≥ 30 | 
CC(C)[C@@H](C(=O)N1C[C@H](O)C[C@H]1C(=O)N[C@H](C)c1cc(F)c(C#N)cc1F)c1cc(N2CCC(CN3CCC(O[C@H]4C[C@H](Oc5cc(N6C7CCC6CN(c6cc(-c8ccccc8O)nnc6N)C7)ccn5)C4)CC3)CC2)no1 [Compound 3, (2S,4R)-N-[(1R)-1-(4-cyano-2,5-difluorophenyl)ethyl]-4-hydroxy-1-[(2R)-3-methyl-2-{3-[4-({4-[(1r,3r)-3-[(4-{3-[3-amino-6-(2-hydroxyphenyl)pyridazin-4-yl]-3,8-diazabicyclo[3.2.1]octan-8-yl}pyridin-2-yl)oxy]cyclobutoxy]piperidin-1-yl}methyl)piperidin-1-yl]-1,2-oxazol-5-yl}butanoyl]pyrrolidine-2-carboxamide] | ≥ 30 | 
